Experimental data: patent US12018157B2, “Tunable photoactivatable silicon rhodamine fluorophores” (SPIROCHROME AG, priority 2017, dated 2024)

Columns and labels:
[1] = UV-Vis analysis / full absorbance spectra of PA-SiR 2a before and after UV irradiation; type: physicochemical; conditions: PBS
Description: PBS solutions of different pH were adjusted by addition of HCl or NaOH solution using a pH meter.
Solutions were prepared in PBS ([…] or 20 μM) at the indicated pH. UV irradiation was performed outside of the spectrometer for the indicated period (T). Absorbance spectra were recorded using a SHIMADZU UV spectrophotometer (UV-1800) and 1 cm fluorescence quartz cuvettes (Hellma Analytics). Spectra were recorded every minute.
Solutions of 2a in PBS (10 μM) at the desired pH were prepared in 1 cm fluorescence quartz cuvette (Hellma Analytics). UV irradiation was performed directly inside the spectrophotometer during the running experiment at a fixed distance (F, single flash). Kinetic absorbance measurements were recorded on a Perkin-Elmer Lambda 950 spectrophotometer at 646 nm.

[2] = system: SNAP-tag in the nucleus of Hela cells; assay: Live-cell imaging, localisation in Hela cells expressing SNAP-tag in the nucleus; type: cell-based
Description: (§1) Mammalian expression vectors with a SNAP-tag-NLS or SNAP-tag-Halo-tag-NLS fusion construct were available in the Johnsson lab. H2B-Halo was constructed from a pEBTet plasmid and the commercially available pCLIPf-H2B plasmid (NEB).
(§2) HeLa or U2OS cells were cultured in high-glucose DMEM media with GlutaMAX-1 (Life Technologies) supplemented with 10% FBS (Life Technologies) in a humidified 5% CO2 incubator at 37° C. Cells were split every 3-4 days or at confluency.
(§3) Cells were seeded on glass bottom 35 mm dishes (Mattek) one day before imaging. Transient transfection of cells was performed using Lipofectamine™ 2000 reagent (Life Technologies) according to the manufacturer's recommendations: DNA (2.5 μg) was mixed with OptiMEM I (100 μL, Life Technologies) and Lipofectamine™ 2000 (6 μL) was mixed with OptiMEM I (100 μL). The solutions were incubated for 5 min at room temperature. They were mixed and incubated for 20 min at room temperature. Prepared DNA-Lipofectamine complex was added to a glass bottom 35 mm dish with cells at 50-70% confluency. After 6 h incubation in a humidified 5% CO2 incubator at 37° C. the medium was changed to a fresh high-glucose DMEM medium with GlutaMAX-1 supplemented with 10% FBS. The cells were incubated for 1-2 days before imaging. […]

[3] = system: HaloTag in the nucleus of Hela cells; assay: Live-cell imaging, localisation in Hela cells expressing HaloTag in the nucleus; type: cell-based
Description: as §1, §2, §3

HaloTag-H2B fusion = assay: Live-cell imaging, U2OS cells expressing HaloTag-H2B fusion; type: cell-based; conditions: 1 μM, 1 h (FIG. 3)
Description: FIG. 3 U2OS cells expressing HaloTag-H2B fusion stained with PA-SiR-Halo for 1 h (1 μM) and washed once for 3 min. Images were taken before and after irradiation with the 355 nm laser on a confocal microscope. Scale bar 30 μm.
as §1, §2
as §3, with “confluency.” for “confluency. After 6 h incubation in a humidified 5% CO2 incubator at 37° C. the medium was changed to a fresh high-glucose DMEM medium with GlutaMAX-1 supplemented with 10% FBS. The cells were incubated for 1-2 days before imaging.”

Actin = assay: Live-cell imaging, localisation of PA-SiR-Actin to its target; type: cell-based
Description: as §2
(§4) Cells were stained with 1-3 μM PA-SiR (1-2 h, 37° C.), washed with phenol-red free DMEM medium (Life Technologies) or PBS (once for 3 min, 37° C.) and imaged in the same medium.
(§5) Imaging was performed using a Leica DMI6000B microscope equipped with a Hamamatsu-C9100 EM-CCD camera and a HCX PL APO 100.0×1.47 Oil objective and a standard Cy5 filter set was used. Activation of the fluorophores was achieved by irradiation with the DAPI-channel at 100% for 10-20 s. The same settings (exposure time=150 ms, gain=3, EM-gain=800, transmission=12.5%) were used for the images taken before and after UV irradiation in the SiR-channel.
(§6) Confocal imaging was performed on a Leica DMi8 microscope equipped with a Leica TCS SP8 X scanhead, a white light laser, a 355 nm laser (Coherent) and HC PL APO 63×1.47 Oil objective. The 355 nm laser was used to perform the photoactivation.

DNA = assay: Live-cell imaging, localisation of PA-SiR-DNA to its target; type: cell-based
Description: as §2, §4, §5, §6

Tubulin = assay: Live-cell imaging, localisation of PA-SiR-Tubulin to its target; type: cell-based
Description: as §2, §4, §5, §6

For `CN(C)c1ccc2c(c1)[Si](C)(C)c1cc(N(C)C)ccc1C2=CCCC(=O)O` [2a, 4-(3,7-Bis(dimethylamino)-5,5-dimethyldibenzo[b,e]silin-10(5H)-ylidene)butanoicacid], the “absorbance (before photoactivation)” value [1] was “only absorbance in the UV-range”.
In the case of `CN(C)c1ccc2c(c1)[Si](C)(C)c1cc(N(C)C)ccc1C2=CCCC(=O)NCc1ccc(COc2nc(N)nc3[nH]cnc23)cc1` [PA-SiR-SNAP, N-(4-(((2-Amino-9H-purin-6-yl)oxy)methyl)benzyl)-4-(3,7-bis(dimethylamino)-5,5-dimethyldibenzo[b,e]silin-10(5H)-ylidene)butanamide], the “localisation to SNAP-tag in the nucleus” value [2] is reported as “successfully localised”.
With `CN(C)c1ccc2c(c1)[Si](C)(C)c1cc(N(C)C)ccc1C2=CCCC(=O)NCCOCCOCCCCCCCl` [PA-SiR-Halo, 4-(3,7-Bis(dimethylamino)-5,5-dimethyldibenzo[b,e]silin-10(5H)-ylidene)-N-(2-(2-((6-chlorohexyl)oxy)ethoxy)ethyl)butanamide] the “localisation to HaloTag in the nucleus” value [3] was “successfully localised” and the “localisation to H2B” value (HaloTag-H2B fusion) was “successfully localised”.
For `C/C1=C\CC[C@H](C)OC(=O)C[C@H](c2ccc(O)cc2)NC(=O)[C@@H](Cc2cc3ccccc3[nH]2)N(C)C(=O)[C@H](CCCCNC(=O)CCC=C2c3ccc(N(C)C)cc3[Si](C)(C)c3cc(N(C)C)ccc32)NC(=O)[C@@H](C)C1` [PA-SiR-Actin, N-(4-((4R,7R,10S,13S,19S,E)-7-((1H-Indol-2-yl)methyl)-4-(4-hydroxyphenyl)-8,13,15,19-tetramethyl-2,6,9,12-tetraoxo-1-oxa-5,8,11-triazacyclononadec-15-en-10-yl)butyl)-4-(3,7-bis(dimethylamino)-5,5-dimethyldibenzo[b,e]silin-10(5H)-ylidene)butanamide], the “localisation to target (actin)” value (Actin) was “localised to their targets”.
With `CN1CCN(c2ccc3nc(-c4ccc5nc(-c6ccc(OCCCCNC(=O)CCC=C7c8ccc(N(C)C)cc8[Si](C)(C)c8cc(N(C)C)ccc87)cc6)[nH]c5c4)[nH]c3c2)CC1` [PA-SiR-DNA, 4-(3,7-Bis(dimethylamino)-5,5-dimethyldibenzo[b,e]silin-10(5H)-ylidene)-N-(4-(4-(6-(4-methylpiperazin-1-yl)-1H,3′H-[2,5′-bibenzo[d]imidazol]-2′-yl)henoxy)butyl)butanamide] the “localisation to target (DNA)” value (DNA) was “localised to their targets”.
For `CC(=O)O[C@@]12CO[C@@H]1C[C@H](O)[C@@]1(C)C(=O)[C@H](O)C3=C(C)[C@@H](OC(=O)C(O)C(NC(=O)CCCCCCCNC(=O)CCC=C4c5ccc(N(C)C)cc5[Si](C)(C)c5cc(N(C)C)ccc54)c4ccccc4)C[C@@](O)([C@@H](OC(=O)c4ccccc4)[C@H]21)C3(C)C` (stereo partly drawn) [PA-SiR-Tubulin, (2αR,4S,4αS,6R,9S,11S,12S,12αR,12βS)-12β-Acetoxy-9-((3-(8-(4-(3,7-bis(dimethylamino)-5,5-dimethyldibenzo[b,e]silin-10(5H)-ylidene)butanamido)octanamido)-2-hydroxy-3-phenylpropanoyl)oxy)-4,6,11-trihydroxy-4α,8,13,13-tetramethyl-5-oxo-2α,3,4,4α,5,6,9,10,11,12,12α,12β-dodecahydro-1H-7,11-methanocyclodeca[3,4]benzo[1,2-β]oxet-12-yl benzoate], the “localisation to target (tubulin)” value (Tubulin) was “localised to their targets”.
